Measurements: US12600714B2, “Substituted pyrazinecarboxamide compounds for treating diseases related to EGFR mutation” (WIGEN BIOMEDICINE TECHNOLOGY (SHANGHAI) CO., LTD., priority 2020, dated 2026)

Tested on: EGFR (del19/T790M/C797S)
Experiment: HTRF inhibitory activity assay against EGFR (del19/T790M/C797S) enzyme
Assay type: biochemical
Procedure: Inhibitory Activity Assay of the Compounds Disclosed Herein Against EGFR (del19/T790M/C797S), EGFR (L858R/T790M/C797S) or EGFR (WT) Enzymes
The inhibitory effects of the compounds against EGFR (del19/T790M/C797S), EGFR (L858R/T790M/C797S) or EGFR (WT) enzyme activity was determined by using HTRF. The procedures are as follows:
The WT or mutant EGFR proteins were incubated with a serially diluted compounds at 28° C. for 10 min followed by addition of biotin-labeled general tyrosine kinase (TK) substrate and ATP. The mixture was incubated at room temperature for 40 min for reaction. After the termination of the reaction, an Eu3+-Cryptate-labeled antibody against TK and streptavidin-XL665 were added and the mixture was incubated at room temperature for 60 min. The luminescences at 615 nm and 665 nm were detected and the ratio of 665/615 was calculated to quantify the level of TK substrate phosphorylation. Inhibition % and IC50 of the compounds were calculated relative to the control group.

With `CN1CC=C(c2nc(C(N)=O)c(Nc3ccc(N4CCC(N5CCN(C)CC5)CC4)cc3)nc2NC2CCOCC2)CC1` [compound 102] the “EGFR (del19/T790M/C797S) inhibition (%) (0.3 nM compound)” value (shortened to “EGFR (del19/T790M/C797S) inhibition (%)”) was “+ (+ indicates an inhibition less than or equal to 20%)”.

With `CN1CCN(C2CCN(c3ccc(Nc4nc(NC5CCOCC5)c(-c5ccncc5F)nc4C(N)=O)cc3)CC2)CC1` [compound 103] the “EGFR (del19/T790M/C797S) inhibition (%)” value was “++ (++ indicates an inhibition from 20% to 50%)”.

For `CN1CCN(C2CCN(c3ccc(Nc4nc(NC5CCOCC5)c(-c5cccc(C(F)F)c5)nc4C(N)=O)cc3)CC2)CC1` [compound 105], the “EGFR (del19/T790M/C797S) inhibition (%)” value was “+ (+ indicates an inhibition less than or equal to 20%)”.

For `CN1CCN(C2CCN(c3ccc(Nc4nc(NC5CCOCC5)c(-c5ccn(C)c(=O)c5)nc4C(N)=O)cc3)CC2)CC1` [compound 106], the “EGFR (del19/T790M/C797S) inhibition (%)” value was “+ (+ indicates an inhibition less than or equal to 20%)”.

In the case of `CN1CCN(C2CCN(c3ccc(Nc4nc(NC5CCOCC5)c(-c5ccccc5NS(C)(=O)=O)nc4C(N)=O)cc3)CC2)CC1` [compound 107], the “EGFR (del19/T790M/C797S) inhibition (%)” value is reported as “+ (+ indicates an inhibition less than or equal to 20%)”.

`CN1CCN(C2CCN(c3ccc(Nc4nc(NC5CCOCC5)c(C5=CCNCC5)nc4C(N)=O)cc3)CC2)CC1` [compound 109] was tested, and the “EGFR (del19/T790M/C797S) inhibition (%)” value was “+ (+ indicates an inhibition less than or equal to 20%)”.

For `COc1cc(Nc2nc(NC3CCOCC3)c(-c3ccccc3)nc2C(N)=O)ccc1N1CCC(N2CCN(C)CC2)CC1` [compound 112], the “EGFR (del19/T790M/C797S) inhibition (%)” value was “+ (+ indicates an inhibition less than or equal to 20%)”.

For `COc1cc(N2CCC(N3CCN(C)CC3)CC2)ccc1Nc1nc(NC2CCOCC2)c(-c2ccccc2)nc1C(N)=O` [compound 113], the “EGFR (del19/T790M/C797S) inhibition (%)” value was “+ (+ indicates an inhibition less than or equal to 20%)”.

In the case of `CN1CCN(C2CCN(c3ccc(Nc4nc(NC5CCOCC5)c(N5CCCCC5)nc4C(N)=O)cc3)CC2)CC1` [compound 116, 3-((4-(4-(4-methylpiperazin-1-yl)piperidin-1-yl)phenyl)amino)-6-(piperidin-1-yl)-5-((tetrahydro-2H-pyran-4-yl)amino)pyrazine-2-carboxamide], the “EGFR (del19/T790M/C797S) inhibition (%)” value is reported as “+ (+ indicates an inhibition less than or equal to 20%)”.

In the case of `CN(C)CCCNc1nc(Nc2ccc(N3CCC(N4CCN(C)CC4)CC3)cc2)c(C(N)=O)nc1-c1ccccc1` [compound 117], the “EGFR (del19/T790M/C797S) inhibition (%)” value is reported as “+ (+ indicates an inhibition less than or equal to 20%)”.

`CN1CCN(C2CCN(c3ccc(Nc4nc(N[C@@H]5CCC[C@@H]5O)c(-c5ccccc5)nc4C(N)=O)cc3)CC2)CC1` [compound 133] was tested, and the “EGFR (del19/T790M/C797S) inhibition (%)” value was “++ (++ indicates an inhibition from 20% to 50%)”.

In the case of `CN1CCN(C2CCN(c3ccc(Nc4nc(N[C@@H]5CCC[C@H]5O)c(-c5ccccc5)nc4C(N)=O)cc3)CC2)CC1` [compound 134], the “EGFR (del19/T790M/C797S) inhibition (%)” value is reported as “++ (++ indicates an inhibition from 20% to 50%)”.

With `CN1CCN(C2CCN(c3ccc(Nc4nc(N[C@@H]5CC[C@H](O)C5)c(-c5ccccc5)nc4C(N)=O)cc3)CC2)CC1` [compound 136, 5-(((1R,3S)-3-hydroxycyclopentyl)amino)-3-((4-(4-(4-methylpiperazin-1-yl)piperidin-1-yl)phenyl)amino)-6-phenylpyrazine-2-carboxamide] the “EGFR (del19/T790M/C797S) inhibition (%)” value was “++ (++ indicates an inhibition from 20% to 50%)”.

For `CN1CCN(C2CCN(c3ccc(Nc4nc(N[C@H]5CC[C@H](O)C5)c(-c5ccccc5)nc4C(N)=O)cc3)CC2)CC1` [compound 138, 5-(((1S,3S)-3-hydroxycyclopentyl)amino)-3-((4-(4-(4-methylpiperazin-1-yl)piperidin-1-yl)phenyl)amino)-6-phenylpyrazine-2-carboxamide], the “EGFR (del19/T790M/C797S) inhibition (%)” value was “++ (++ indicates an inhibition from 20% to 50%)”.

`CN1CCN(C2CCN(c3ccc(Nc4nc(N[C@H]5CC[C@@H](O)C5)c(-c5ccccc5)nc4C(N)=O)cc3)CC2)CC1` [compound 139, 5-(((1S,3R)-3-hydroxycyclopentyl)amino)-3-((4-(4-(4-methylpiperazin-1-yl)piperidin-1-yl)phenyl)amino)-6-phenylpyrazine-2-carboxamide] was tested, and the “EGFR (del19/T790M/C797S) inhibition (%)” value was “++ (++ indicates an inhibition from 20% to 50%)”.

In the case of `Cc1cc(Nc2nc(NC3CCOCC3)c(-c3ccncc3)nc2C(N)=O)ccc1N1CCC(N2CCN(C3CC3)CC2)CC1` [compound 146], the “EGFR (del19/T790M/C797S) inhibition (%)” value is reported as “++ (++ indicates an inhibition from 20% to 50%)”.

With `Cc1cc(-c2nc(C(N)=O)c(Nc3ccc(N4CCC(N5CCN(C)CC5)CC4)c(C)c3)nc2NC2CCOCC2)ccn1` [compound 154] the “EGFR (del19/T790M/C797S) inhibition (%)” value was “++ (++ indicates an inhibition from 20% to 50%)”.

For `[2H]C([2H])([2H])N1CCN(C2CCN(c3ccc(Nc4nc(NC5CCOCC5)c(-c5ccccn5)nc4C(N)=O)cc3)CC2)CC1` [compound 206], the “EGFR (del19/T790M/C797S) inhibition (%)” value was “++ (++ indicates an inhibition from 20% to 50%)”.

For `NC(=O)c1nc(-c2ccccn2)c(NC2CCOCC2)nc1Nc1ccc(N2CCC(N3CCN(C4CC4)CC3)CC2)cc1` [compound 207], the “EGFR (del19/T790M/C797S) inhibition (%)” value was “++ (++ indicates an inhibition from 20% to 50%)”.

For `CN1CCN(C2CCN(c3ccc(Nc4nc(NC5CCOCC56CC6)c(-c5ccccn5)nc4C(N)=O)cc3)CC2)CC1` (stereo not drawn) [compound 255], the “EGFR (del19/T790M/C797S) inhibition (%)” value was “++ (++ indicates an inhibition from 20% to 50%)”.

`CN1CCN(C2CCN(c3ccc(Nc4nc(NC5CCOC6(CC6)C5)c(-c5ccccn5)nc4C(N)=O)cc3)CC2)CC1` (stereo not drawn) [compound 263] was tested, and the “EGFR (del19/T790M/C797S) inhibition (%)” value was “++ (++ indicates an inhibition from 20% to 50%)”.

For `NC(=O)c1nc(-c2ccccn2)c(NC2CCOC3(CC3)C2)nc1Nc1ccc(N2CCC(N3CCN(C4CC4)CC3)CC2)cc1` (stereo not drawn) [compound 264], the “EGFR (del19/T790M/C797S) inhibition (%)” value was “++ (++ indicates an inhibition from 20% to 50%)”.

For `CN1CCN(C2CCN(c3ccc(Nc4nc(NC5CC6(CCOCC6)C5)c(-c5ccccn5)nc4C(N)=O)cc3)CC2)CC1` [compound 271], the “EGFR (del19/T790M/C797S) inhibition (%)” value was “++ (++ indicates an inhibition from 20% to 50%)”.

For `Cc1cc(Nc2nc(NC3CC4(CCOCC4)C3)c(-c3ccncc3)nc2C(N)=O)ccc1N1CCC(N2CCN(C)CC2)CC1` [compound 379], the “EGFR (del19/T790M/C797S) inhibition (%)” value was “++ (++ indicates an inhibition from 20% to 50%)”.

In the case of `CN1CCN(C2CCN(c3ccc(Nc4nc(NC5CCOCC5)c(-c5ccnc6[nH]ccc56)nc4C(N)=O)cc3F)CC2)CC1` [compound 520], the “EGFR (del19/T790M/C797S) inhibition (%)” value is reported as “+++ (+++ indicates an inhibition greater than 50%.)”.

With `CC(C)Nc1nc(Nc2ccc(N3CCC(N4CCN(C)CC4)CC3)c(F)c2)c(C(N)=O)nc1-c1cccc2[nH]ccc12` [compound 530] the “EGFR (del19/T790M/C797S) inhibition (%)” value was “+++ (+++ indicates an inhibition greater than 50%.)”.

For `CN1CCN(C2CCN(c3ccc(Nc4nc(NC5CC5)c(-c5cccc6[nH]ccc56)nc4C(N)=O)cc3F)CC2)CC1` [compound 531], the “EGFR (del19/T790M/C797S) inhibition (%)” value was “+++ (+++ indicates an inhibition greater than 50%.)”.

`CN1CCN(C2CCN(c3ccc(Nc4nc(N[C@H]5C[C@H](O)C5)c(-c5cccc6[nH]ccc56)nc4C(N)=O)cc3F)CC2)CC1` [compound 534] was tested, and the “EGFR (del19/T790M/C797S) inhibition (%)” value was “+++ (+++ indicates an inhibition greater than 50%.)”.

For `CN1CCN(C2CCN(c3ccc(Nc4nc(NCC(C)(C)O)c(-c5cccc6[nH]ccc56)nc4C(N)=O)cc3F)CC2)CC1` [compound 537], the “EGFR (del19/T790M/C797S) inhibition (%)” value was “+++ (+++ indicates an inhibition greater than 50%.)”.

In the case of `CN1CCN(C2CCN(c3ccc(Nc4nc(NC5COC5)c(-c5cccc6[nH]ccc56)nc4C(N)=O)cc3F)CC2)CC1` [compound 595], the “EGFR (del19/T790M/C797S) inhibition (%)” value is reported as “+++ (+++ indicates an inhibition greater than 50%.)”.

For `CN1CCN(C2CCN(c3ccc(Nc4nc(NC5COC5)c(-c5ccnc6[nH]ccc56)nc4C(N)=O)cc3)CC2)CC1` [compound 596], the “EGFR (del19/T790M/C797S) inhibition (%)” value was “+++ (+++ indicates an inhibition greater than 50%.)”.

In the case of `CC(C)Nc1nc(Nc2ccc(N3CCC(N4CCN(C)CC4)CC3)cc2)c(C(N)=O)nc1-c1ccnc2[nH]ccc12` [compound 609], the “EGFR (del19/T790M/C797S) inhibition (%)” value is reported as “+++ (+++ indicates an inhibition greater than 50%.)”.

With `CN1CCN(C2CCN(c3ccc(Nc4nc(NC5CC5)c(-c5ccnc6[nH]ccc56)nc4C(N)=O)cc3)CC2)CC1` [compound 610] the “EGFR (del19/T790M/C797S) inhibition (%)” value was “+++ (+++ indicates an inhibition greater than 50%.)”.

With `CN1CCN(C2CCN(c3ccc(Nc4nc(N[C@H]5C[C@@H](O)C5)c(-c5cc[nH]n5)nc4C(N)=O)cc3)CC2)CC1` [compound 614] the “EGFR (del19/T790M/C797S) inhibition (%)” value was “+++ (+++ indicates an inhibition greater than 50%.)”.

In the case of `CN1CCN(C2CCN(c3ccc(Nc4nc(N[C@H]5C[C@H](O)C5)c(-c5cc[nH]n5)nc4C(N)=O)cc3)CC2)CC1` [compound 615], the “EGFR (del19/T790M/C797S) inhibition (%)” value is reported as “+++ (+++ indicates an inhibition greater than 50%.)”.

`CN1CCN(C2CCN(c3ccc(Nc4nc(NC5CCC(O)C5)c(-c5cc[nH]n5)nc4C(N)=O)cc3)CC2)CC1` (stereo not drawn) [compound 617] was tested, and the “EGFR (del19/T790M/C797S) inhibition (%)” value was “++ (++ indicates an inhibition from 20% to 50%)”.

For `CN1CCN(C2CCN(c3ccc(Nc4nc(NC5CCCC5O)c(-c5cc[nH]n5)nc4C(N)=O)cc3)CC2)CC1` (stereo not drawn) [compound 618], the “EGFR (del19/T790M/C797S) inhibition (%)” value was “++ (++ indicates an inhibition from 20% to 50%)”.

With `CN1CCN(C2CCN(c3ccc(Nc4nc(NC5CCOCC5)c(-c5cc[nH]n5)nc4C(N)=O)cc3F)CC2)CC1` [compound 619] the “EGFR (del19/T790M/C797S) inhibition (%)” value was “++ (++ indicates an inhibition from 20% to 50%)”.

For `CN1CCN(C2CCN(c3ccc(Nc4nc(N[C@H]5C[C@@H](O)C5)c(-c5cc[nH]n5)nc4C(N)=O)cc3F)CC2)CC1` [compound 620], the “EGFR (del19/T790M/C797S) inhibition (%)” value was “++ (++ indicates an inhibition from 20% to 50%)”.
